Laboratory results as given in patent US20040071633A1, “Method for determining efficacy of reverse cholesterol transport enhancing agents” (priority 2003, published 2004).

How the values were obtained:
[1] = tested on: ABCA1 mRNA; test: ABCA1 mRNA expression by real-time quantitative TaqMan PCR in THP-1 or HepG2 cells; type: cell-based, human
Method: (§1) FIGS. 5a and 5b are graphs showing that activation of LXR increases mRNA expression of ABCA1 and CD14. THP-1 or HepG2 cells (5×10^5 cells/well) were plated in 6-well plates, and mixed with buffer (open bar) or 22(R)—OH cholesterol (10 μM, closed bar). After overnight incubation (˜16 hr) at 37° C., RNA samples were prepared from the cultured cells, and mRNAs for ABCA1 (a) and CD14 (b) were measured as described in Example 4, below. Results are presented as fold of control (untreated cells), and data are shown as the means±range of duplicate determinations.
(§2) Recent studies indicate that cholesterol efflux from cells is regulated by the transcription factor, LXR, which binds regulatory oxysterols and enhances expression of ABCA1 (see Costet, P., Luo, Y., Wang, N., and Tall, A. R. (2000) J. Biol. Chem. 275, 28240-28245; and Schwartz, K., Lawn, R. M., and Wade, D. P. (2000) Biochem. Biophys. Res. Commun. 274, 794-802.). If CD14 shared with ABCA1 a role in cholesterol efflux from cells, the expression of CD14 might be regulated in parallel with ABCA1 to help achieve cholesterol homeostasis. To test this, cells were incubated with 22(R)-hydroxycholesterol (22R—OH cholesterol), a specific ligand for LXR, and expression of ABCA1 and CD14 mRNA was measured by real time PCR. […] The dose dependence for induction of ABCA1 and CD14 was roughly similar with half-maximal induction observed at ˜10 μM (not shown). Induction of ABCA1 appeared slightly more rapid than that of CD14, but both reached a plateau level by 16 hr. The magnitude of the response of CD14 to 22R—OH cholesterol was less than that observed for ABCA1, but the increase was consistently seen with either of these two cell types. […]
(§3) Real-time quantitative TaqMan PCR analysis (Heid, C. A., Stevens, J., Livak, K. J., and Williams, P. M. (1996) Genome Res. 6, 986-994) was used to determine the relative levels of CD14 and ABCA1 mRNA. […] Sequence-specific amplification was detected with an increased fluorescent signal of FAM (reporter dye) during the amplification cycle. […]

[2] = tested on: CD14 mRNA; test: CD14 mRNA expression by real-time quantitative TaqMan PCR in THP-1 or HepG2 cells; type: cell-based, human
Method: as §1, §2, §3

[3] = tested on: THP-1 cells; test: cholesterol efflux from [3H]cholesterol-labeled THP-1 cells mediated by sCD14 or apo A-I; type: cell-based
Method: FIGS. 1a, 1b and 1c are graphs showing the effect of sCD14 concentration on cholesterol efflux. [^3H]cholesterol-labeled THP-1 cells were incubated with the indicated concentration of sCD14 (closed circles), apo A-I (open circles) or HSA (inverted triangles) in RPMI for 30 min (a and b) or for 20 h (c). Each point represents the mean of three measurements±SD (a) or the average of duplicate samples±range (b and c). Data are representative of five independent experiments with similar results.
[^3H]cholesterol-labeled THP-1 cells were incubated with increasing concentrations of sCD14, apo A-I or the control protein, HSA, and radioactivity in the supernatant was determined. The initial rate of cholesterol efflux was explored in studies of short duration (30 min, FIG. 1a and with extended dose response in FIG. 1b). […] Because of the linear dose-dependence of sCD14-mediated efflux and because no other cholesterol acceptor was present in the incubation, these observations appear most consistent with a direct, low affinity binding of cholesterol to sCD14.
The maximal extent of cholesterol efflux mediated by apo A-I and sCD14 was explored in parallel experiments of 24 hr duration (FIG. 1c). […] However, because of the limiting concentrations of sCD14 in plasma (3-5 μg/ml) and the far greater concentration of apo A-I (˜1 mg/ml), sCD14 per se is unlikely to be a significant reservoir or destination for the cholesterol in plasma.

[4] = tested on: THP-1 cells; test: sCD14 acceleration of cholesterol efflux from [3H]cholesterol-labeled THP-1 cells to apo A-I, HDL3 or HDL; type: cell-based; conditions: sCD14 5 μg/ml alone or apo A-I 100 μg/ml alone
Method: FIG. 2 is a graph showing the kinetics of cholesterol efflux by sCD14 and/or apo A-I. [^3H]cholesterol-labeled THP-1 cells were incubated with or without 5 μg/ml of sCD14 and/or 100 μg/ml of apo A-I in RPMI. Background efflux without proteins at each time was measured and subtracted from other data point. Closed circles, sCD14; open circles, apo A-I; inverted triangles, sCD14 and apo A-L. Data represents the mean of three measurements±SD. The data were repeated with similar results.
FIG. 3 is a graph showing the dose dependent additive effect of sCD14 for cholesterol efflux to apo A-I but not to HDL. [^3 H]cholesterol-labeled TBP-1 cells were incubated in buffer containing 50 μg/ml of apo A-I, HDL3 or HDL with or without the indicated concentration of sCD14 for 1 h. Open bar, without sCD14; hatched bar, 10 μg/ml sCD14; black bar, 25 μg/ml sCD14. Background efflux without proteins at each time was measured and subtracted from other data point. Asterisks show statistical significance compared to the data without sCD14: *, p<0.01; **, p<0.001. Data are representative of three independent experiments with similar results.
The following experiment was performed to determine if sCD14 could facilitate the efflux of cholesterol to its major acceptor, apo A-I (FIG. 2). […]

[5] = THP-1 monocytes or HepG2, 10 μM, overnight (~16 hr)

Row | Compound | time to plateau level of ABCA1 induction [1] | EC50 ([1]; Homo sapiens, dose dependence (not shown), read-out: half-maximal induction of ABCA1) | ABCA1 mRNA expression [1, 5] | time to plateau level of CD14 induction [2] | EC50 ([2]; Homo sapiens, dose dependence (not shown), read-out: half-maximal induction of CD14) | CD14 mRNA expression [2, 5] | concentration at which cholesterol efflux is saturable ([3]; 30 min assays, THP-1 cells, no other cholesterol acceptor) | concentration leading to near maximal cholesterol efflux ([3]; 24 hr duration, THP-1 cells) | capacity to mediate cholesterol efflux relative to CD14 ([3]; 24 hr duration, comparison of dose-dependence curves) | cholesterol efflux by protein alone, kinetic analysis [4]
1 | CC(C)CC[C@@H](O)[C@@H](C)[C@H]1CC[C@H]2[C@@H]3CC=C4C[C@@H](O)CC[C@]4(C)[C@H]3CC[C@]12C [22(R)-hydroxycholesterol] | ≤ 16 h | ~10 µM | consistent rise | ≤ 16 h | ~10 µM | consistent rise |  |  |  | 
2 | apo A-I: apolipoprotein A-I, major acceptor of cellular cholesterol |  |  |  |  |  |  | 10 to 20 µg/mL | 10 µg/mL | 10-20 fold | larger efflux
